Like-named read-outs stand apart in the source and are kept apart here.

The target in the assay is T1, LRRK2(G2019S mutation, GST-LRRK2(amino acids 970-2527)) (Homo sapiens, UniProt Q5S007, G2019S).
T1 construct: GST-LRRK2(amino acids 970-2527); GST (N); purchased Life Technologies Corporation
The assay can be described thus: LRRK2 Km ATP LanthaScreen Assay. It is filed as biochemical. How it is done: Unless otherwise noted, all LRRK2 IC50 data presented in tables refers to the LRRK2 Km ATP LanthaScreen™ Assay that is described in the Biological Assay section.
The data presented for the 5 mM and Km ATP LanthaScreen™ Assay represents mean IC50 values based on several test results and may have reasonable. deviations depending on the specific conditions and reagents used. Reagents for the LRRK2 5 mM and Km ATP LanthaScreen™ Assay were purchased from Life Technologies Corporation.
Results are analysed using Assay Data Analyzer.
A general note: In TR-FRET formats the signal depends on donor and acceptor labels being close together.

Where [1] appears, read: Km ATP LanthaScreen, mean IC50 of several tests, read-out: LRRK2 IC50.
The mark [2] stands for this setting: Km ATP LanthaScreen Assay, LRRK2 G2019S, mean IC50 values, read-out: LRRK2 IC50.
[3] abbreviates: Km ATP LanthaScreen Assay; LRRK2 G2019S; mean IC50 values; Examples 185-215; read-out: LRRK2 IC5).

T1 sequence (Q5S007 970-2527 G2019S): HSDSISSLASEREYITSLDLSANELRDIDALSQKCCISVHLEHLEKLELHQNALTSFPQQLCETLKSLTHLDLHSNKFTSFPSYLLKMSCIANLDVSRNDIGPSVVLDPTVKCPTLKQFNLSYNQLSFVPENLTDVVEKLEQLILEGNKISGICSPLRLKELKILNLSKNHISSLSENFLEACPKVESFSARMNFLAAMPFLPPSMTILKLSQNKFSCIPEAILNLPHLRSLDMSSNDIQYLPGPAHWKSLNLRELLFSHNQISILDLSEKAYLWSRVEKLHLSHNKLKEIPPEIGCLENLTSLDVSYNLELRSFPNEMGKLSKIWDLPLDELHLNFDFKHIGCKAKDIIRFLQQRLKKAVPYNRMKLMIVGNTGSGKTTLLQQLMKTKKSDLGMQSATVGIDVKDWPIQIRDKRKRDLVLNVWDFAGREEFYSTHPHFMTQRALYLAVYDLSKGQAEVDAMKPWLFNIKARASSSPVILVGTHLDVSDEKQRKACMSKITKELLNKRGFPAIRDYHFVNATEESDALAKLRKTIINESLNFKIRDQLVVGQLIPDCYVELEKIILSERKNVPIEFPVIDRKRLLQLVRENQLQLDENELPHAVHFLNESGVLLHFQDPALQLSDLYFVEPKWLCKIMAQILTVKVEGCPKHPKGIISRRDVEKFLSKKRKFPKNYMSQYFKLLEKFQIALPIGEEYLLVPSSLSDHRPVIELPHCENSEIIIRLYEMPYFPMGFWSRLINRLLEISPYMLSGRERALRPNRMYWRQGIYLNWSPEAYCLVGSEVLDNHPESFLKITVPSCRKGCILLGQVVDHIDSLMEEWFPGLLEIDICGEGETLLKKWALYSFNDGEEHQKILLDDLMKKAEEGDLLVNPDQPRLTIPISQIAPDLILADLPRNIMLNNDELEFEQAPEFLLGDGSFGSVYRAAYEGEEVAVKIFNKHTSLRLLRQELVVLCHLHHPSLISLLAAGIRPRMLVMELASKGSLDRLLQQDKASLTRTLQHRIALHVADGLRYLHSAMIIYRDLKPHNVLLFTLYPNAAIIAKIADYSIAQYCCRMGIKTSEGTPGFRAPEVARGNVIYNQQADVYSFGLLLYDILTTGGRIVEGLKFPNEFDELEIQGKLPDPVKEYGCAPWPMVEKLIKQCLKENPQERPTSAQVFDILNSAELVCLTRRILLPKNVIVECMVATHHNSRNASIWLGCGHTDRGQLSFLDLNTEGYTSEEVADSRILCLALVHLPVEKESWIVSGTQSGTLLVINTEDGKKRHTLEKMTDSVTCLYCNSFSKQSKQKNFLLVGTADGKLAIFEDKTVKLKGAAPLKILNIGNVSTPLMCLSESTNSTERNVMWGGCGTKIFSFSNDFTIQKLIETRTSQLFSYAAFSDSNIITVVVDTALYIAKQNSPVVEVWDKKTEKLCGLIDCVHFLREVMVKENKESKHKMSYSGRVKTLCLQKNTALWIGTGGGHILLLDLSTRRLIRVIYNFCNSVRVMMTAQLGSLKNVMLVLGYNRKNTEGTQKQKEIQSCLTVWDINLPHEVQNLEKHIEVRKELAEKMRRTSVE

As for `CC(O)Cc1cc2c(-c3ccnc(N4CCOCC4)c3)n[nH]c2cc1F` (stereo not shown) [Example 350], the IC50 under setting [1] stood at 76 nM.

Take `CCOc1ccc2[nH]nc(-c3ccnc(N4CC(O)(C(F)(F)F)C4)c3)c2c1` [Example 361]: the IC50 under setting [1] is less than 0.6 nM.

For `Cn1nccc1-c1ccc2[nH]nc(-c3ccnc(N4CCOCC4)c3)c2c1` [Example 345], under setting [1], the IC50 stood at 18 nM.

Turning to `Fc1cnc(-c2ccc3[nH]nc(-c4ccnc(N5CCOCC5)c4)c3c2)nc1` [Example 337], the IC50 under setting [1] turned out to be 42 nM.

`Cn1cc(-c2ccc3[nH]nc(-c4ccnc(N5CCC(n6cncn6)CC5)c4)c3c2)cn1` [Example 270]: under setting [1], the IC50 was determined as 2.2 nM.

Take `CN1CCN(c2cc(-c3n[nH]c4ccc(-c5cnn(C)c5)cc34)ccn2)CC1=O` [Example 279]: the IC50 under setting [1] turned out to be 2.9 nM.

For `c1ccc(N2CCN(c3cc(-c4n[nH]c5ccccc45)ccn3)CC2)cc1` [Example 11], the IC50 under setting [2] was 49 nM.

Consider `CC(C)Oc1ccc2[nH]nc(-c3ccnc(NC(=O)C4CCOCC4)c3)c2c1` [Example 164], for which, under setting [2], the IC50 is 27.7 nM.

As to `COCCOc1ccc2[nH]nc(-c3ccnc(N4CCN(C)C(=O)C4)c3)c2c1` [Example 368], the IC50 under setting [1] was determined as 30 nM.

In the case of `OC1(c2ccncc2)CCN(c2cc(-c3n[nH]c4ccccc34)ccn2)CC1` [Example 25], the IC50 under setting [2] was found to be 21 nM.

For `CN1CCC(CNc2cc(-c3n[nH]c4ccccc34)ccn2)C1` (stereo not shown) [Example 54], the IC50 under setting [2] turned out to be 47 nM.

As for `c1ccc2c(-c3ccnc(N4CCC(c5ccncc5)CC4)c3)n[nH]c2c1` [Example 16], the IC50 under setting [2] was found to be 186 nM.

In the case of `Cc1noc(C2CN(c3cc(-c4n[nH]c5ccc(-c6cnn(C)c6)cc45)ccn3)C2)n1` [Example 275], under setting [1], the IC50 amounted to 5.6 nM.

Regarding `CCCOc1ccc2[nH]nc(-c3ccnc(N4CCN(S(C)(=O)=O)CC4)c3)c2c1` [Example 295], the IC50 under setting [1] worked out at 17 nM.

`CC(C)Oc1ccc2[nH]nc(-c3ccnc(N4CC[C@H](O)C4)c3)c2c1` [Example 181]: the IC50 under setting [2] stood at 8.2 nM.

With `CC(C)Oc1ccc2[nH]nc(-c3ccnc(NC(=O)C(C)c4ccccc4)c3)c2c1` (stereo not shown) [Example 151], the IC50 under setting [2] was 51.9 nM.

On to `Cc1nc2c(o1)CCN(c1cc(-c3n[nH]c4ccc(OC(C)C)cc34)ccn1)C2` [Example 197], for which the IC50 under setting [3] is 12.8 nM.

Regarding `COc1ccc2c(-c3ccnc(N4CCOCC4)c3)n[nH]c2c1` [Example 105], under setting [1], the IC50 came out at 30 nM.

With `c1ccc2c(-c3ccnc(N4CC5CCC(C4)O5)c3)n[nH]c2c1` [Example 402], under setting [2], the IC50 was determined as 27 nM.

For the compound `CC(C)Oc1ccc2[nH]nc(-c3ccnc(N4CCCC(c5ccncn5)C4)c3)c2c1` (stereo not shown) [Example 205], the IC50 under setting [3] is 6.4 nM.

With `FC(F)(F)Oc1ccc2[nH]nc(-c3ccnc(N4CCc5nc(C6CC6)oc5C4)c3)c2c1` [Example 252], under setting [2], the IC50 came out at 700 nM.

Regarding `CC(C)Oc1ccc2[nH]nc(-c3ccnc(NS(=O)(=O)c4cccc(F)c4)c3)c2c1` [Example 256], the IC50 under setting [1] was 42.5 nM.

Take `CC(C)Oc1ccc2[nH]nc(-c3ccnc(NC(=O)CC4CC4)c3)c2c1` [Example 152]: the IC50 under setting [2] is 35.8 nM.

Turning to `CC(C)Oc1ccc2[nH]nc(-c3ccnc(N4CCOC5(CC5)C4)c3)c2c1` [Example 378], the IC50 under setting [1] came to 7.5 nM.

As for `CS(=O)(=O)Cc1cc2c(-c3ccnc(N4CCOCC4)c3)n[nH]c2cc1F` [Example 372], under setting [1], the IC50 worked out at 1210 nM.

For `c1cc(-c2n[nH]c3cc4c(cc23)OCCO4)cc(N2CCOCC2)n1` [Example 394], the IC50 under setting [1] is 12 nM.

On to `FC(F)(F)Oc1ccc2[nH]nc(-c3ccnc(N4CCOCC4)c3)c2c1` [Example 374], for which the IC50 under setting [1] is 28 nM.

Take `CC(C)Oc1ccc2[nH]nc(-c3ccnc(N4CCC(n5cncn5)CC4)c3)c2c1` [Example 187]: the IC50 under setting [3] is 4 nM.

On to `CC(C)Oc1ccc2[nH]nc(-c3ccnc(N4CC(n5cnnc5)C4)c3)c2c1` [Example 180], for which, under setting [2], the IC50 was found to be 10.2 nM.

On to `CN1CCC(CN(C)c2cc(-c3n[nH]c4ccccc34)ccn2)CC1` [Example 50], for which the IC50 under setting [2] was 40 nM.

As for `c1ccc2c(c1)CN(c1cc(-c3n[nH]c4ccccc34)ccn1)C2` [Example 7], under setting [2], the IC50 was found to be 87 nM.

For the compound `[2H]C1([2H])OC([2H])([2H])C([2H])([2H])N(c2cc(-c3n[nH]c4ccc(OC(C)C)cc34)ccn2)C1([2H])[2H]` [Example 281], the IC50 under setting [2] was determined as 1.4 nM.

Consider `CS(=O)(=O)N1CCN(c2cc(-c3n[nH]c4ccccc34)ccn2)CC1` [Example 18], for which, under setting [2], the IC50 came out at 17 nM.

In the case of `c1ccc2c(-c3ccnc(N4CCC(CN5CCOCC5)CC4)c3)n[nH]c2c1` [Example 40], the IC50 under setting [2] is 28 nM.

As to `CC(C)Oc1ccc2[nH]nc(-c3ccnc(N4CCCN(c5ncccn5)CC4)c3)c2c1` [Example 209], the IC50 under setting [3] amounted to 25.5 nM.

As to `CCOc1ccc2[nH]nc(-c3ccnc(N4CC(C#N)(c5ccccc5)C4)c3)c2c1` [Example 219], the IC50 under setting [2] came out at 70 nM.

As to `c1cc(-c2n[nH]c3ccc(OCCN4CCOCC4)cc23)cc(N2CCOCC2)n1` [Example 82], the IC50 under setting [2] was determined as 4.7 nM.

`CC(C)Oc1ccc2[nH]nc(-c3ccnc(N4CCC(n5cccn5)CC4)c3)c2c1` [Example 173]: the IC50 under setting [2] was 4.9 nM.

`CCOc1ccc2[nH]nc(-c3ccnc(N4CC[C@@H](OC)C4)c3)c2c1` [Example 227]: the IC50 under setting [2] turned out to be 11.3 nM.

With `COc1nccnc1-c1ccc2[nH]nc(-c3ccnc(N4CCOCC4)c3)c2c1` [Example 388], the IC50 under setting [1] was determined as 38 nM.

Turning to `CC(C)Oc1ccc2[nH]nc(-c3ccnc(NC(=O)c4ccc5c(c4)C(=O)NC5)c3)c2c1` [Example 145], the IC50 under setting [2] is 52 nM.

With `COc1ccc(C2CC2C(=O)Nc2cc(-c3n[nH]c4ccc(OC(C)C)cc34)ccn2)cc1` (stereo not shown) [Example 159], the IC50 under setting [2] is 782 nM.

`Oc1cc(-c2ccc3[nH]nc(-c4ccnc(N5CCNCC5)c4)c3c2)ccn1` [Example 120]: the IC50 under setting [1] was found to be 3.4 nM.

In the case of `Cc1cc2[nH]nc(-c3ccnc(N4CCOCC4)c3)c2cc1OC(C)C` [Example 397], the IC50 under setting [1] was found to be 167 nM.

Consider `CC(O)c1ccc2[nH]nc(-c3ccnc(N4CCOC(CCO)C4)c3)c2c1` (stereo not shown) [Example 127], for which the IC50 under setting [2] amounted to 17 nM.

As for `COCCOc1ccc2[nH]nc(-c3ccnc(N4CCOCC4)c3)c2c1` [Example 377], the IC50 under setting [1] was found to be 70 nM.

Consider `CC(C)COc1ccc2[nH]nc(-c3ccnc(N4CCOCC4)c3)c2c1` [Example 84], for which, under setting [2], the IC50 turned out to be 5.9 nM.

For the compound `Cn1cc(-c2ccc3[nH]nc(-c4ccnc(N5CCc6oc(C7CC7)nc6C5)c4)c3c2)cn1` [Example 272], the IC50 under setting [1] worked out at 5.8 nM.

In the case of `FC(F)(F)Oc1ccc2[nH]nc(-c3ccnc(N4CCN(C5CC5)CC4)c3)c2c1` [Example 244], the IC50 under setting [2] stood at 188 nM.

Regarding `CC(C)Oc1ccc2[nH]nc(-c3ccnc(N4CCN(c5ccccc5)C(=O)C4)c3)c2c1` [Example 199], under setting [3], the IC50 stood at 8.9 nM.

`Clc1cnc(-c2ccc3[nH]nc(-c4ccnc(N5CCOCC5)c4)c3c2)nc1` [Example 334]: under setting [1], the IC50 worked out at 52 nM.

Take `Brc1ccc2c(-c3ccnc(N4CCOCC4)c3)n[nH]c2c1` [Example 103]: the IC50 under setting [1] turned out to be 19 nM.

In the case of `Cn1cnnc1-c1ccc2[nH]nc(-c3ccnc(N4CCOCC4)c3)c2c1` [Ex 341], the IC50 under setting [1] came out at 1.4 nM.

For `CCOc1ccc2[nH]nc(-c3ccnc(N4CCC(n5cccn5)CC4)c3)c2c1` [Example 218], the IC50 under setting [2] worked out at 14.4 nM.

Consider `CC(C)Oc1ccc2[nH]nc(-c3ccnc(N4C[C@H](F)[C@@H](F)C4)c3)c2c1` [Example 174], for which the IC50 under setting [2] amounted to 6.6 nM.
